Laboratory results published in patent US7977364B2, “Indazoles, benzisoxazoles and benzisothiazoles and their use as estrogenic agents” (Laboratoire Thermamex, priority 2004, dated 2011).

Experiments:
[1] = system: human endometrial adenocarcinoma Ishikawa cells; assay: Estrogenic and anti-estrogenic activities in vitro: induction of alkaline phosphatase (APase) activity; assay type: cell-based
Summary of the method: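 Ishikawa cells in phenol red-free DMEM with 5% charcoal-stripped dFCS; after incubation, APase measured via 5 mM p-nitrophenyl phosphate hydrolysis at pH 9.8, read at 405 nm after 15-60 min at room temperature. EC50 (estrogenic) and IC50 (anti-estrogenic) from sigmoidal dose-response curves.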

[2] = molecular target: T1, purified full-length recombinant human ERα (Homo sapiens, UniProt P03372); assay: Estrogen receptor α competitive radiometric binding assay ([3H]-E2)
T1 sequence (P03372 1-595): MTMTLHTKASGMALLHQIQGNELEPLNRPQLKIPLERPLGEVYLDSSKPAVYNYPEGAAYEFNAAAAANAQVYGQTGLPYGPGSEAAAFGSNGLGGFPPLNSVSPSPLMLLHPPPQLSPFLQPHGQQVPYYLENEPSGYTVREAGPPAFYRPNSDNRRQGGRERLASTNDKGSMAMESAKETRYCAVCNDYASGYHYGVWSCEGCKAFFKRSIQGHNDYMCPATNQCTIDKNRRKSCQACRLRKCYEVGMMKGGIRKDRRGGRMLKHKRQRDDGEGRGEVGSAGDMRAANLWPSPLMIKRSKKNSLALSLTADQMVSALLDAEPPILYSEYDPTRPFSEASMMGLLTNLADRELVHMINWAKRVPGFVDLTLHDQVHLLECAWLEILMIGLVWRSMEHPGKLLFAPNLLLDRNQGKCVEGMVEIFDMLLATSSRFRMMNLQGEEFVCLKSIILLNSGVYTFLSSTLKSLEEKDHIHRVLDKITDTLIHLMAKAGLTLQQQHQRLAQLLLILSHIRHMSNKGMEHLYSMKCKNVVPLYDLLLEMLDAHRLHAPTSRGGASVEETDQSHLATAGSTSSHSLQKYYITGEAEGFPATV
Procedure: (§1) Relative binding affinities (RBA) were determined by competitive radiometric binding assays, using purified full-length recombinant human ERα and ERβ (PanVera, Madison, Wis.). […] After shaking for a few seconds and centrifugation at 1500 g and 4° C. for 10 minutes, 150 μl/well of Optiphase ‘Super Mix’ scintillation liquid was mixed with 50 μl of supernatant of each sample and the radioactivity was measured in a MicroBeta counter (Wallac, Turku, Finland). Data were evaluated by a sigmoidal dose-response curve (Prism, GraphPad Software Inc.) to estimate the concentration of competitor at half-maximal specific binding (IC50). […] The selectivity for ERα and ERβ was obtained from the ratio R of the IC50 for ERα to the IC50 for ERβ for each test compound.

[3] = molecular target: purified full-length recombinant human ERβ (Homo sapiens, UniProt Q92731); assay: Estrogen receptor β competitive radiometric binding assay ([3H]-E2)
purified full-length recombinant human ERβ, sequence (Q92731 whole entry): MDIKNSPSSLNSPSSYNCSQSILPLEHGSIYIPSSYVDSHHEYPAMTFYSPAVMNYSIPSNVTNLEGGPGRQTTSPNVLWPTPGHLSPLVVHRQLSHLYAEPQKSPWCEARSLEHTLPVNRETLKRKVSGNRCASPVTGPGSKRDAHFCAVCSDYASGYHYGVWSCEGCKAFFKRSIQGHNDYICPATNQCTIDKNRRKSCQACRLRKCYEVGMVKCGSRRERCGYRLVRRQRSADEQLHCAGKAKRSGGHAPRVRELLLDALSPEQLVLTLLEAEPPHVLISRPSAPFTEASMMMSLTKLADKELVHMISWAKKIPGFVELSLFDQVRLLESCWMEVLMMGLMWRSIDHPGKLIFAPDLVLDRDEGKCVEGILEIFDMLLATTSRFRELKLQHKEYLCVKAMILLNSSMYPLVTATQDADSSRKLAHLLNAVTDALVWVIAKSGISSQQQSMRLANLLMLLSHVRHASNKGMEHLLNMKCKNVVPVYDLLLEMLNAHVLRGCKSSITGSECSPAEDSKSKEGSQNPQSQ
Procedure: as §1

[4] = ratio of IC50s of E2 and competitor, E2 set at 100%

EC50 ([1]; Homo sapiens, Ishikawa, 96 h, compound alone, four days, ND = not detected, read-out: Estrogenic activity EC50 (nM) ± S.E.M): 1700 ± 168 nM
IC50 [2]: 1.33 ± 0.268 µM
RBA (%) Mean ± S.E.M, ER α [2, 4]: 0.2 ± 0.05%
IC50 [3]: 0.0418 ± 0.0071 µM
ligand to estrogen receptor beta ([3]; in words): potent ligand
selectivity for the human recombinant estrogen receptor β ([3]; in words): marked selectivity
RBA (%) Mean ± S.E.M, ER β [3, 4]: 10.4 ± 4.0%
R (IC50s) αβ ([3]; ratio of the IC50 for ERα to the IC50 for ERβ): 31.9
SMILES: Oc1ccc2c(C3CCCC3)n[nH]c2c1 [Ex 23, 3-cyclopentyl-1H-indazol-6-ol]
estrogenic effect in alkaline phosphatase activity in the Ishikawa cell model ([1]; in words): weak estrogenic effect
